Test results taken from PubChem BioAssay AID256 (DTP/NCI, 2004).
Where “and” joins values, the source holds several entries; their conditions need not be identical. Identical values can stand only once. Inconclusive results and toxic doses are left out. The calls were made as follows: active = survival T/C of 150% or more; inactive = T/C below 125% in these data.

Tested on: CD2F1 mice, L1210 leukemia ip, survival T/C
Test: NCI In Vivo Anticancer Drug Screen. Data for tumor model L1210 Leukemia (intraperitoneal) in CD2F1 (CDF1) mice
Details: higher = longer survival
Outline: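 Mice carrying a transplanted tumor received test compound or vehicle alone. The value is the measurement in the treated group divided by that in the vehicle-treated control group.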

[1] = endpoint: mean survival time, dose: 12.5 mg/kg/injection, schedule: Q01DX009 (ip), vehicle: saline with Tween-80
[2] = endpoint: mean survival time, dose: 25.0 mg/kg/injection, schedule: Q01DX009 (ip), vehicle: saline with Tween-80
[3] = endpoint: mean survival time, dose: 50.0 mg/kg/injection, schedule: Q01DX009 (ip), vehicle: saline with Tween-80
[4] = endpoint: mean survival time, dose: 100.0 mg/kg/injection, schedule: Q01DX009 (ip), vehicle: saline with Tween-80
[5] = endpoint: mean survival time, dose: 200.0 mg/kg/injection, schedule: Q01DX009 (ip), vehicle: saline with Tween-80
[6] = endpoint: mean survival time, dose: 100.0 mg/kg/injection, schedule: Q04DX003 (ip), vehicle: saline with Tween-80
[7] = endpoint: mean survival time, dose: 200.0 mg/kg/injection, schedule: Q04DX003 (ip), vehicle: saline with Tween-80
[8] = endpoint: mean survival time, dose: 400.0 mg/kg/injection, schedule: Q04DX003 (ip), vehicle: saline with Tween-80
[9] = endpoint: mean survival time, dose: 25.0 mg/kg/injection, schedule: Q04DX002 (ip), vehicle: saline with Tween-80
[10] = endpoint: mean survival time, dose: 50.0 mg/kg/injection, schedule: Q04DX002 (ip), vehicle: saline with Tween-80
[11] = endpoint: mean survival time, dose: 100.0 mg/kg/injection, schedule: Q04DX002 (ip), vehicle: saline with Tween-80
[12] = endpoint: mean survival time, dose: 50.0 mg/kg/injection, schedule: Q01DX009 (ip), vehicle: saline
[13] = endpoint: mean survival time, dose: 200.0 mg/kg/injection, schedule: Q04DX002 (ip), vehicle: saline with Tween-80
[14] = endpoint: median survival time, dose: 12.5 mg/kg/injection, schedule: Q01DX005 (ip), vehicle: saline
[15] = endpoint: median survival time, dose: 25.0 mg/kg/injection, schedule: Q01DX005 (ip), vehicle: saline
[16] = endpoint: median survival time, dose: 50.0 mg/kg/injection, schedule: Q01DX005 (ip), vehicle: saline
[17] = endpoint: median survival time, dose: 100.0 mg/kg/injection, schedule: Q01DX005 (ip), vehicle: saline
[18] = endpoint: median survival time, dose: 200.0 mg/kg/injection, schedule: Q01DX005 (ip), vehicle: saline

Measured: T/C

O=C(O)C1Cc2nc[nH]c2CN1CO (configuration not stated)
inactive: [1] 100 % of control | [2] 100 % of control and 102 % of control | [3] 100 % of control | [4] 104 % of control and 109 % of control | [5] 108 % of control | endpoint: mean survival time, dose: 400.0 mg/kg/injection, schedule: Q01DX009 (ip), vehicle: saline with Tween-80 108 % of control and 109 % of control

CNC(C(=O)O)c1ccccc1 (configuration not stated)
inactive: [2] 101 % of control | [3] 100 % of control | [4] 92 % of control and 94 % of control | [6] 92 % of control | [7] 101 % of control | [8] 89 % of control

Cc1cc(Cl)c(OCC(=O)O)c(Cl)c1
inactive: [6] 100 % of control | [7] 100 % of control

O=C1C=CC(=O)C2CC=CCC12 (configuration not stated)
inactive: endpoint: mean survival time, dose: 10.0 mg/kg/injection, schedule: Q01DX009 (ip), vehicle: saline with Tween-80 103 % of control | endpoint: mean survival time, dose: 12.5 mg/kg/injection, schedule: Q04DX003 (ip), vehicle: saline with Tween-80 101 % of control | endpoint: mean survival time, dose: 20.0 mg/kg/injection, schedule: Q01DX009 (ip), vehicle: saline with Tween-80 107 % of control | endpoint: mean survival time, dose: 25.0 mg/kg/injection, schedule: Q04DX003 (ip), vehicle: saline with Tween-80 104 % of control | endpoint: mean survival time, dose: 40.0 mg/kg/injection, schedule: Q01DX009 (ip), vehicle: saline with Tween-80 98 % of control | endpoint: mean survival time, dose: 50.0 mg/kg/injection, schedule: Q04DX003 (ip), vehicle: saline with Tween-80 98 % of control | [6] 100 % of control | [7] 93 % of control | [8] 100 % of control

CC(C)OC(=O)C#CC(=O)O
inactive: endpoint: mean survival time, dose: 25.0 mg/kg/injection, schedule: Q01DX001 (ip), vehicle: saline 97 % of control | endpoint: mean survival time, dose: 50.0 mg/kg/injection, schedule: Q01DX001 (ip), vehicle: saline 97 % of control

OC1COCOC1C1OCOCC1O (configuration not stated)
inactive: endpoint: mean survival time, dose: 100.0 mg/kg/injection, schedule: Q04DX003 (ip), vehicle: saline 95 % of control | endpoint: mean survival time, dose: 200.0 mg/kg/injection, schedule: Q04DX003 (ip), vehicle: saline 95 % of control | endpoint: mean survival time, dose: 400.0 mg/kg/injection, schedule: Q04DX003 (ip), vehicle: saline 97 % of control

COc1ccccc1OCC(C)=O
inactive: [6] 108 % of control | [7] 98 % of control | [8] 97 % of control

CCOC(=O)NC(NC(=O)OCC)C(Br)(Br)Br
inactive: endpoint: mean survival time, dose: 200.0 mg/kg/injection, schedule: Q01DX001 (ip), vehicle: Klucel (hydroxypropylcellulose) (HPC) 103 % of control | endpoint: mean survival time, dose: 400.0 mg/kg/injection, schedule: Q01DX001 (ip), vehicle: Klucel (hydroxypropylcellulose) (HPC) 95 % of control

C(COCCOCC1CO1)OCCOCC1CO1 (configuration not stated)
inactive: [1] 104 % of control | [2] 108 % of control | [3] 104 % of control | [4] 106 % of control | [5] 104 % of control

O=C1OC(=O)c2c1ccc1c(O)cccc21
inactive: endpoint: mean survival time, dose: 100.0 mg/kg/injection, schedule: Q01DX001 (ip), vehicle: saline with Tween-80 101 % of control | endpoint: mean survival time, dose: 200.0 mg/kg/injection, schedule: Q01DX001 (ip), vehicle: saline with Tween-80 90 % of control | endpoint: mean survival time, dose: 400.0 mg/kg/injection, schedule: Q01DX001 (ip), vehicle: saline with Tween-80 108 % of control

NC(=O)c1cccnc1
inactive: endpoint: mean survival time, dose: 175.0 mg/kg/injection, schedule: Q04HX040 (ip), vehicle: water 109 % of control | endpoint: mean survival time, dose: 350.0 mg/kg/injection, schedule: Q04HX040 (ip), vehicle: water 103 % of control

CC1=C(NNS(=O)(=O)c2ccc(C)cc2)CCCC1=O
inactive: [9] 94 % of control | [10] 97 % of control | [11] 91 % of control and 96 % of control

N#Cc1cccnc1.NCCNCCN.[Br-].[Pt+4]
inactive: endpoint: mean survival time, dose: 12.5 mg/kg/injection, schedule: Q01DX009 (ip), vehicle: saline 95 % of control | endpoint: mean survival time, dose: 25.0 mg/kg/injection, schedule: Q01DX009 (ip), vehicle: saline 103 % of control | [12] 101 % of control | endpoint: mean survival time, dose: 100.0 mg/kg/injection, schedule: Q01DX009 (ip), vehicle: saline 98 % of control | endpoint: mean survival time, dose: 200.0 mg/kg/injection, schedule: Q01DX009 (ip), vehicle: saline 98 % of control

CCCCCCCCCCCCCCCCOc1ccccc1NC(=O)CC(C)=O
inactive: [6] 96 % of control | [7] 94 % of control | [8] 95 % of control

Nc1ncnc2c1ncn2C1OC(CO)C(=C(Br)Br)C1O (configuration not stated)
inactive: endpoint: mean survival time, dose: 6.25 mg/kg/injection, schedule: Q01DX005 (ip), vehicle: distilled water + Tween-80 103 % of control | endpoint: mean survival time, dose: 12.5 mg/kg/injection, schedule: Q01DX005 (ip), vehicle: distilled water + Tween-80 100 % of control | endpoint: mean survival time, dose: 25.0 mg/kg/injection, schedule: Q01DX005 (ip), vehicle: distilled water + Tween-80 97 % of control | endpoint: mean survival time, dose: 50.0 mg/kg/injection, schedule: Q01DX005 (ip), vehicle: distilled water + Tween-80 101 % of control | endpoint: mean survival time, dose: 100.0 mg/kg/injection, schedule: Q01DX005 (ip), vehicle: distilled water + Tween-80 100 % of control

O=C(O)CCCCCCCC(Br)C(Br)CCCCCCCC(=O)O (configuration not stated)
inactive: [9] 95 % of control | [10] 91 % of control | [11] 91 % of control | [13] 95 % of control

NC(N)=N/N=C(/c1ccccc1)c1ccc(F)cc1
inactive: [12] 101 % of control

O=C1CC2OCCC3CN4CCC56c7ccccc7N1C5C2C3CC46 (configuration not stated)
inactive: endpoint: mean survival time, dose: 75.0 mg/kg/injection, schedule: Q01DX001 (ip), vehicle: saline 106 % of control | endpoint: mean survival time, dose: 150.0 mg/kg/injection, schedule: Q01DX001 (ip), vehicle: saline 101 % of control

O=C(C=P(c1ccccc1)(c1ccccc1)c1ccccc1)c1ccccc1
inactive: [6] 97 % of control | [7] 101 % of control | [8] 89 % of control

CC(=O)N/N=C/C(C)(C)C(C)(C)/C=N/NC(C)=O
inactive: [11] 103 % of control | [13] 122 % of control

COc1ccn(C2OC(=O)C(C)(C)C2=O)c(=O)n1 (configuration not stated)
inactive: [14] 101 % of control | [15] 100 % of control | [16] 101 % of control | [17] 101 % of control | [18] 100 % of control

Nc1nc2c(c(=O)[nH]1)N1C(=O)N(c3ccc(C(=O)NC(CCC(=O)O)C(=O)O)cc3)CC1CN2 (configuration not stated)
inactive: endpoint: mean survival time, dose: 100.0 mg/kg/injection, schedule: Q01DX001 (ip), vehicle: sodium bicarbonate 107 % of control | endpoint: mean survival time, dose: 200.0 mg/kg/injection, schedule: Q01DX001 (ip), vehicle: sodium bicarbonate 113 % of control | endpoint: mean survival time, dose: 400.0 mg/kg/injection, schedule: Q01DX001 (ip), vehicle: sodium bicarbonate 109 % of control

O=Cc1cc2c3c(c1)CCCN3CCC2
inactive: [6] 97 % of control | [7] 102 % of control | [8] 94 % of control

COc1nc(NC2OCC(O)C(O)C2O)cc(=O)n1C (configuration not stated)
inactive: [14] 102 % of control | [15] 101 % of control | [16] 100 % of control | [17] 105 % of control | [18] 98 % of control
